From patent US20210205341A1, “COMPOSITIONS COMPRISING HUMAN MILK OLIGOSACCHARIDES FOR USE IN INFANTS OR YOUNG CHILDREN TO PREVENT OR TREAT A HEALTH DISORDER BY INCREASING GLP-1 SECRETION” (NESTEC S.A., priority 2016, published 2021)

What was measured:
[1] = test system: GLP-1 secretion; experiment: GLP-1 plasma concentration in IUGR rats fed HMO-supplemented regimen; format: in vivo, rat
From the text: A wide group of pregnant female rats were bought from Charles River laboratories. They were submitted to food restriction of 60% during the last 10 days of gestation.
Immediately after birth (d=1), the born rat pups—subjects of the experiment—were split into several groups: • IUGR rats (control) (n=20) • IUGR rats+HMO (test groups): During the experiment, they were reared by their mothers for 21 days and supplemented with HMOs (2FL or LNnT). At weaning, they were fed a diet supplemented with the same HMOs, see details below. There were 2 different groups: • IUGR rats+2FL (n=10) • IUGR rats+LNnT (n=10)
IUGR (intrauterine growth restricted) rats were chosen as control model since they have a higher appetite to compensate their growth retardation, and therefore they may not eat in a healthy way with standard diets (e.g. they may have a higher total weight and/or adipose mass increase over their lean mass increase) which may lead to the development and programming for future health conditions including later in life obesity or future related comorbidities like diabetes.
All rat pups were fed from birth (d=1) up to 57 days (d=57) based on the following protocol: • day 1-day 6: all groups of rats were nursed by dam (mothers' milk only) • day 7-day 21: all rats were nursed by dam (mothers' milk only). But in the test groups, 3 g/kg body weight of a HMO were also administered by gavage: 2FL: 3 g/kg body weight, for the group IUGR rats+2FL LNnT: 3 g/kg body weight, for the group IUGR rats+LNnT • day 22-day 57: rats were separated from their mothers and they had the following regimen: • IUGR rats (control): fed with a control diet (composition detailed in table 2), no HMO supplementation
IUGR rats+HMO (test groups): fed with the same diet but supplemented with 4.5 wt % of a HMO (maltodextrin in the total control diet was replaced by the respective tested HMO):
4.5 wt % of 2FL for the group IUGR rats+2FL
4.5 wt % of LNnT for the group IUGR rats+LNnT
GLP-1 secretion in the rats was assessed by determination of its circulating concentration in plasma.

[2] = test system: NCI-H716 cells; experiment: Calcium assay in NCI-H716 cells (fluorescent calcium sensitive dye); format: cell-based, human; settings: for significance of increase in fluorescence ratio: 5 mg/mL, 10 mg/mL and 20 mg/mL, p<0.05 vs negative control, two-sided t-test; for concentration dependence of calcium response: 1-20 mg/mL; for fluorescence ratio (intracellular calcium response): all tested concentrations: 1, 5, 10 and 20 mg/mL, vs buffer negative control
From the text: NCI-H716 is a cell line derived from human L-cells, the enteroendocrine cells that secrete GLP-1, and it is often used as a model of GLP-1 secretion. Unstimulated NCI-H716 cells secrete a basal level of GLP-1 and activation of the cells leads to dose-dependent increase in GLP-1 secretion. Activation of the NCI-H716 cells and subsequent release of GLP-1 can be triggered by nutrients such as palmitic acid, oleic acid, and meat hydrolysate, Gastrin Releasing Peptide (GRP), the cholinergic molecule Carbachol, bitter compounds such as denatonium, ginsenosides and other molecules.
Activation of NCI-H716 cells by ionomycin, GRP, denatonium, or ginsenosides leads to increased intracellular calcium. Elevation of intracellular calcium is therefore a marker of cell activation and in NCI-H716 cells it could be considered as an indicator of GLP-1 release.
A calcium assay was used to determine if NCI-H716 cells respond to human milk oligosaccharides (sialylated oligosaccharides 3SL and 6SL) or components/precursors thereof (lactose and sialic acid). In this assay, cultured NCI-H716 cells were loaded with a fluorescent calcium sensitive dye then stimulated with the HMOs. The response to the stimulus was measured by change in fluorescence ratio in consequence of intracellular calcium increase. The tested HMOs were 3′-sialyllactose (3SL) and 6′-sialyllactose (6SL). They were tested individually.
GRP (Gastrin Releasing Peptide): positive control
Tested HMOs concentrations: 1 mg/mL, 5 mg/mL, 10 mg/mL and 20 mg/mL
Tested lactose and sialic acid concentrations: 5.5 mg/mL and 4.72 mg/mL respectively (correspond to the amounts contained in 10 mg/mL of 3SL, in order to make a suitable comparison with 10 mg/mL of 3SL)

[3] = d=57, 3 g/kg by gavage day 7-21, then diet with 4.5 wt % HMO day 22-57, FIG. 1A partial results
[4] = d=57, 3 g/kg by gavage day 7-21, then diet with 4.5 wt % HMO day 22-57, FIG. 1B final results

2′-fucosyllactose [2FL]
GLP-1 plasma concentration increase in comparison with the control group [1, 3]: 200%
GLP-1 plasma concentration increase in comparison with the control group [1, 4]: 164%

CC(=O)N[C@H]1[C@H](O[C@H]2[C@@H](O)[C@@H](CO)O[C@@H](O[C@H]3[C@H](O)[C@@H](O)C(O)O[C@@H]3CO)[C@@H]2O)O[C@H](CO)[C@@H](O[C@@H]2O[C@H](CO)[C@H](O)[C@H](O)[C@H]2O)[C@@H]1O (mixture of isomers) [LNnT, lacto-N-neotetraose]
GLP-1 plasma concentration increase in comparison with the control group [1, 3]: 43%
GLP-1 plasma concentration increase in comparison with the control group [1, 4]: 13%

CC(=O)N[C@H]1[C@H]([C@H](O)[C@H](O)CO)O[C@@](O[C@H]2[C@@H](O)[C@@H](CO)O[C@@H](O[C@H]3[C@H](O)[C@@H](O)C(O)O[C@@H]3CO)[C@@H]2O)(C(=O)O)C[C@@H]1O (stereo partly drawn) [3SL, (6R)-5-Acetamido-3,5-dideoxy-6-[(1R,2R)-1,2,3-trihydroxypropyl]-β-L-threo-hex-2-ulopyranonosyl-(2->3)-β-D-galactopyranosyl-(1->4)-D-glucopyranose]
significance of increase in fluorescence ratio [2]: significant
concentration dependence of calcium response [2]: clear concentration dependent calcium response
fluorescence ratio (intracellular calcium response) [2]: enhanced

CC(=O)N[C@H]1[C@H]([C@H](O)[C@H](O)CO)O[C@@](OC[C@H]2O[C@@H](O[C@H]3[C@H](O)[C@@H](O)C(O)O[C@@H]3CO)[C@H](O)[C@@H](O)[C@H]2O)(C(=O)O)C[C@@H]1O (stereo partly drawn) [6SL, (6R)-5-Acetamido-3,5-dideoxy-6-[(1R,2R)-1,2,3-trihydroxypropyl]-β-L-threo-hex-2-ulopyranonosyl-(2->6)-β-D-galactopyranosyl-(1->4)-D-glucopyranose]
significance of increase in fluorescence ratio [2]: significant
concentration dependence of calcium response [2]: clear concentration dependent calcium response
fluorescence ratio (intracellular calcium response) [2]: enhanced

OC[C@H]1O[C@@H](O[C@H]2[C@H](O)[C@@H](O)C(O)O[C@@H]2CO)[C@H](O)[C@@H](O)[C@H]1O (stereo partly drawn) [Lactose, reference compound]
activation of NCI-H716 cells (calcium response) ([2]; 5.5 mg/mL (amount contained in 10 mg/mL 3SL)): did not activate the cells

CC(=O)N[C@H]1[C@H]([C@H](O)[C@H](O)CO)OC(O)(C(=O)O)C[C@@H]1O (stereo partly drawn) [sialic acid, N-acetylneuraminic acid, reference compound]
activation of NCI-H716 cells (calcium response) ([2]; 4.72 mg/mL (amount contained in 10 mg/mL 3SL)): did not activate the cells
